The source of these data is patent publication US7262186B2, “Substituted pyrazolo[3,4-d] pyrimidinones as a mitotic kinesin inhibitor” (Merck & Co., Inc., priority 2001, dated 2007).

Some results are limits rather than exact numbers.

The test deals with T1, human KSP motor domain (KSP(367H)) (Homo sapiens, UniProt P52732).
T1 construct: were used to amplify the motor domain and the neck linker region; made in house; host or cells: E. coli BL21 (DE3), pRSETa vector
T1 sequence (P52732 18-359 limits assumed): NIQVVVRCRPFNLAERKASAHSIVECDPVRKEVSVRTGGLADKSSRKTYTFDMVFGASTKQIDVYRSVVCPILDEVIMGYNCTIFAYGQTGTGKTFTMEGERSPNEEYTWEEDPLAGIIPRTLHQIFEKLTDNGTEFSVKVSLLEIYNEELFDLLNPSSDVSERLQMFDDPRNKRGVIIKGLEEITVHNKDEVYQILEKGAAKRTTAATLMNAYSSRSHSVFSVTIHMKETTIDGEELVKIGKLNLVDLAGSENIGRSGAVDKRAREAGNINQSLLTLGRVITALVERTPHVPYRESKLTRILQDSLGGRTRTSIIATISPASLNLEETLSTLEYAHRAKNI
Kind of test: Kinesin ATPase in vitro assay. In kind it is biochemical. Particulars: microtubule-stimulated ATPase, 1 mM ATP, 23° C., quinaldine red/ammonium molybdate phosphate detection. The source says: I. Kinesin ATPase In Vitro Assay
Cloning and Expression of Human Poly-histidine Tagged KSP Motor Domain (KSP(367H))
Plasmids for the expression of the human KSP motor domain construct were cloned by PCR using a pBluescript full length human KSP construct (Blangy et al., Cell, vol. 83, pp 1159-1169, 1995) as a template. The N-terminal primer 5′-[…] (SEQ.ID.NO.: 1) and the C-terminal primer 5′-[…] […] (SEQ.ID.NO.: 2) were used to amplify the motor domain and the neck linker region. The PCR products were digested with AseI and XhoI, ligated into the NdeI/XhoI digestion product of pRSETa (Invitrogen) and transformed into E. coli BL21 (DE3).
Cells were grown at 37° C. to an OD600 of 0.5. […]
The kinesin motor domain is incubated with microtubules, 1 mM ATP (1:1 MgCl2: Na-ATP), and compound at 23° C. in buffer containing 80 mM K-HEPES (pH 7.0), 1 mM EGTA, 1 mM DTT, 1 mM MgCl2, and 50 mM KCl. […] Free phosphate from the ATP hydrolysis reaction is measured via a quinaldine red/ammonium molybdate assay by adding 150 μl of quench C buffer containing a 2:1 ratio of quench A:quench B. Quench A contains 0.1 mg/ml quinaldine red and 0.14% polyvinyl alcohol; quench B contains 12.3 mM ammonium molybdate tetrahydrate in 1.15 M sulfuric acid. The reaction is incubated for 10 minutes at 23° C., and the absorbance of the phospho-molybdate complex is measured at 540 nm.

In the case of `CCC(c1nc2[nH]nc(Br)c2c(=O)n1Cc1ccccc1)N(CCN(C)C)C(=O)c1ccc(Br)cc1` (stereo not shown) [1-5, N-[1-(5-benzyl-3-bromo-4-oxo-4,5-dihydro-1H-pyrazolo[3,4-d]pyrimidin-6-yl)propyl]-4-bromo-N-[2-(dimethylamino)ethyl]benzamide], the concentration for half-maximal inhibition (IC50) is ≤ 50 µM.

As usually defined, the IC50 is the concentration at which inhibition is half-maximal. The low end stands for inhibition by little substance, the high end for a need for much substance.
